Assay results published in patent publication US6548543B1, “Remedies or preventives containing cyclopentenone compounds as the active ingredient” (Takara Shuzo Co., Ltd., priority 1998, dated 2003).

How the values were obtained:
[1] = test system: Candida albicans TIMM0136; assay: Antifungal activity, growth inhibition; type: cell-based; settings: 10 μl of solution at 100 or 500 μg/ml added to 100 μl culture; 30° C., 48 hours
Experimental: Dipropionylcyclopentenone, diisobutyrylcyclopentenone and di-2-hexenoylcyclopentenone were used to examine their antifungal activities against Candida albicans TIMM0136.
Candida albicans cells were cultured overnight in YNBG medium containing 0.67% Yeast Nitrogen Base (Difco) and 1.0% glucose (seed culture). The culture was then diluted with fresh Yeast Nitrogen Base medium to a concentration of 1×10^6 cells/ml. 100 μl of the dilution was dispensed into each well of a 96-well microtiter plate.
10 μl each of solutions of dipropionylcyclopentenone, diisobutyrylcyclopentenone or di-2-hexenoylcyclopentenone in 70% ethanol at a concentration of 100 μg/ml or 500 μg/ml, or 10 μl of 70% ethanol solution was added to the well. The plate was incubated without shaking at 30° C. for 48 hours (main culture).

NK cells = type: in vivo, ddY mice; settings: mice administered intraperitoneally
Experimental: ddY mice (female, 7 weeks old) were purchased from Japan SLC and pre-bred for 1 week before using in experiments.
1×10^6 Ehrlich ascites carcinoma cells were intraperitoneally inoculated to each mouse. 10 mg/kg of cyclopentenone, 30 mg/kg of GM or 10 mg/kg of dipropionylcyclopentenone was intraperitoneally administered to the mouse on the day after the inoculation. Saline was administered to a control mouse.
A spleen was taken out from the mouse 10 days after the inoculation with cancer cells, finely minced and suspended in RPMI-1640 medium containing 10% FCS (HyClone) to obtain a single cell suspension. Adhesive cells adhered to a plastic Petri dish were removed from the cell suspension and non-adhesive cells were used as NK cells.
The NK cells were suspended in RPMI-1640 medium containing 10% FCS at a concentration of 6×10^6/ml. 100 μl/well of the suspension was seeded into a microtiter plate.
Target cells were prepared as follows. 3700 kBq of ^51Cr (Amersham) was added to 1×10^6 YAC-1 cells (Dainippon Pharmaceutical). The cells were cultured at 37° C. for 1 hour for labeling. The labeled cells were washed twice and then suspended in RPMI-1640 medium containing 10% FCS at a concentration of 2×10^5 cells/ml. […] The radioactivity (experimental value) was measured using an auto gamma counter.
100 μl of the culture medium was added to the reaction system in place of the NK cells and the radioactivity was measured in order to measure the radioactivity spontaneously released from the target cells (control value).
Furthermore, the radioactivity released into the supernatant when 1% Triton (Nacalai Tesque) was added to the reaction system to lyse the 51Cr-labeled YAC-1 cells was measured in order to measure the total radioactivity contained in the reaction system (total radioactivity value).
The cytotoxicity (%) specifically mediated by the NK cells can be determined according to the following equation.
Cytotoxicity (%)=[(experimental value−control value)/(total radioactivity value−control value)]×100

[2] = test system: tumor necrosis factor (TNF)-α; assay: Endotoxin shock model, serum TNF-α after LPS; type: in vivo, CDF1 mice
Experimental: (1) A model for endotoxin shock was constructed using CDF1 mice (8 weeks old, female, purchased from Japan SLC). Distilled water (control), or 10 mg/kg of diisopropionylcyclopentenone or diisobutyrylcyclopentenone was subcutaneously administered to a mouse. 20 μg of lipopolysaccharide (LPS; Sigma) was intraperitoneally administered to each mouse 30 minutes after the administration. Blood was collected from the mouse 1.5 hours after the administration with LPS. The amount of tumor necrosis factor (TNF)-α in a serum separated from the collected blood was measured using a commercially available ELISA kit (R&D). Each group consisted of 4 mice.
(2) A model for endotoxin shock was constructed by intraperitoneally administering 20 μg of LPS to a CDF1 mouse (8 weeks old, female). 30 or 100 mg/kg of dipropionylcyclopentenone or diisobutyrylcyclopentenone was orally administered 30 minutes before the administration with LPS. Blood was collected from the mouse 1.5 hours after the administration with LPS. The amount of TNF-α in a serum separated from the collected blood was measured using an ELISA kit. Each group consisted of 4 mice.

Meth A tumor cells = assay: Survival of mice given Meth A tumor cells, single dose; type: in vivo, BALB/c mouse; settings: single dose 10 mg/kg intraperitoneal
Experimental: (1) Mouse leukemia P-388 (1.1×10^6 cells/mouse) was intraperitoneally administered to a 7-weeks old female DBA/2 mouse. Immediately after the administration, a single dose of 10 mg/kg dipropionylcyclopentenone was intraperitoneally administered. On the other hand, saline was intraperitoneally administered to a control group in a similar manner. Survival number of mice, average days of survival and prolongation rate were calculated for 2 groups each consisting of 8 mice.
Similarly, examination was carried out using a system of Meth A tumor cells: BALB/c mouse. As a result, the average days of survival were 13.4 days for the control group. The average days of survival were 16.9 days for the group administered with dipropionylcyclopentenone.

[3] = Single oral dose toxicity; type: in vivo; settings: mouse, oral, single dosage of 100 mg/kg
Experimental: No toxicity is observed when a physiologically effective amount of the cyclopentenone derivative or an optical isomer thereof, or a salt thereof obtained according to the present invention is administered.

## CCC(=O)OC1C=CC(=O)C1OC(=O)CC (stereo not shown)
[1]
  Minimum growth inhibitory concentration: 500 µg/mL
NK cells
  Activation of NK cells (statement): Activation of NK cells was observed
[2]; 10 mg/kg subcutaneous
  TNF-α production compared with control group (statement): significantly suppressed
[2]; 10 mg/kg subcutaneous 30 minutes before LPS, serum 1.5 hours after LPS
  Amount of TNF mean ± SE: 4.61 ± 0.57 ng/mL
[2]; 30 mg/kg oral 30 minutes before LPS, serum 1.5 hours after LPS
  TNF mean ± SE: 2.95 ± 0.14 ng/mL
[2]; 100 mg/kg oral 30 minutes before LPS, serum 1.5 hours after LPS
  TNF mean ± SE: 1.26 ± 0.15 ng/mL
[2]; oral 30 or 100 mg/kg
  TNF production compared with control group (statement): suppressed the TNF production in a dose-dependent manner
Meth A tumor cells
  Average days of survival: 16.9 days
  Prolongation rate: 126.2%
[3]
  Death after single oral administration: no death was observed
